Here are results for 9 cell lines from the supplement of paper PMC10307832.

What all share (assay): relative viability (nuclei count vs DMSO), 5 days (fraction); higher = more cells survive
Compound in test [1]: O=S(=O)(c1ccccc1)N(CC(F)(F)F)c1ccc(C(O)(C(F)(F)F)C(F)(F)F)cc1 + CC(=O)c1c(C)c2cnc(Nc3ccc(N4CCNCC4)cn3)nc2n(C2CCCC2)c1=O [Palbociclib] (partner 0.5 µM)
Put shortly: (§1)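 Lung cancer cell lines were pin-tool dosed in 1536-well plates on the day after seeding, with either a lone drug or a fixed anchor-drug dose plus five library-drug doses (not always all listed) in √10 steps. Nuclei were counted on 4× images after 5 days. Relative viability is the ratio of treated-well to vehicle-well nuclei counts, with each value a median of duplicate plates.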

Compound in the test “RO-3306 + Trametinib”: C1=CC2=C(C=CC(=C2)C=C3C(=O)NC(=NCC4=CC=CS4)S3)N=C1 [RO-3306] + CC(=O)Nc1cccc(-n2c(=O)n(C3CC3)c(=O)c3c(Nc4ccc(I)cc4F)n(C)c(=O)c(C)c32)c1 [Trametinib] (partner 0.02 µM)
Put shortly:
as §1

Compound in test [2]: O=S(=O)(c1ccccc1)N(CC(F)(F)F)c1ccc(C(O)(C(F)(F)F)C(F)(F)F)cc1 + CC(=O)Nc1cccc(-n2c(=O)n(C3CC3)c(=O)c3c(Nc4ccc(I)cc4F)n(C)c(=O)c(C)c32)c1 [Trametinib] (partner 0.02 µM)
Put shortly:
as §1

Compound in test [3]: O=S(=O)(c1ccccc1)N(CC(F)(F)F)c1ccc(C(O)(C(F)(F)F)C(F)(F)F)cc1 + Cc1nc(Nc2ncc(C(=O)Nc3c(C)cccc3Cl)s2)cc(N2CCN(CCO)CC2)n1 [Dasatinib] (partner 0.075 µM)
In outline: as §1

Compound in the test “RO-3306 + Lapatinib”: C1=CC2=C(C=CC(=C2)C=C3C(=O)NC(=NCC4=CC=CS4)S3)N=C1 [RO-3306] + CS(=O)(=O)CCNCc1ccc(-c2ccc3ncnc(Nc4ccc(OCc5cccc(F)c5)c(Cl)c4)c3c2)o1 [Lapatinib] (partner 2 µM)
Put shortly: as §1

On to LOU-NH91, for which the relative viability in test [1] (first compound 0.8 µM) was 0.524; in test [1] (first compound 2.53 µM) it was 0.527; in test [1] (first compound 8 µM) it was 0.561; with RO-3306 + Trametinib (first compound 0.01 µM), 0.829; in the test with RO-3306 + Trametinib (first compound 0.03162 µM), 0.735; with RO-3306 + Trametinib (first compound 0.1 µM), 0.75. In addition, the relative viability with RO-3306 + Trametinib (first compound 0.3162 µM) is 0.76; in the test with RO-3306 + Trametinib (first compound 1 µM) it was 0.742; in test [2] (first compound 0.8 µM), 0.919; in test [2] (first compound 2.53 µM), 0.844; in test [2] (first compound 8 µM), 0.914; in test [3] (first compound 0.8 µM), 0.576. Also, the relative viability in test [3] (first compound 2.53 µM) is 0.567; in test [3] (first compound 8 µM) it was 0.68; in the test with RO-3306 + Lapatinib (first compound 0.01 µM), 0.692; with RO-3306 + Lapatinib (first compound 0.03162 µM), 0.739; with RO-3306 + Lapatinib (first compound 0.1 µM), 0.811; with RO-3306 + Lapatinib (first compound 0.3162 µM), 0.771. Besides, in the test with RO-3306 + Lapatinib (first compound 1 µM), the relative viability amounted to 0.677.

As to LCLC-103H, the relative viability came to 0.503 in test [1] (first compound 0.8 µM); 0.523 in test [1] (first compound 2.53 µM); 0.488 in test [1] (first compound 8 µM); 0.728 in the test with RO-3306 + Trametinib (first compound 0.01 µM); 0.665 with RO-3306 + Trametinib (first compound 0.03162 µM); 0.739 with RO-3306 + Trametinib (first compound 0.1 µM). The relative viability in the test with RO-3306 + Trametinib (first compound 0.3162 µM) came to 0.634; in the test with RO-3306 + Trametinib (first compound 1 µM), 0.689; in test [2] (first compound 0.8 µM), 0.71; in test [2] (first compound 2.53 µM), 0.731; in test [2] (first compound 8 µM), 0.739; in test [3] (first compound 0.8 µM), 0.553. Besides, the values for the relative viability in test [3] (first compound 2.53 µM) and in test [3] (first compound 8 µM) were 0.484 and 0.51, respectively.

Take NCI-H522: the relative viability in test [1] (first compound 0.8 µM) was determined as 1.01; in test [1] (first compound 2.53 µM) it was 1.14; in test [1] (first compound 8 µM), 0.913; in the test with RO-3306 + Trametinib (first compound 0.01 µM) it was 0.652; with RO-3306 + Trametinib (first compound 0.03162 µM), 0.521; with RO-3306 + Trametinib (first compound 0.1 µM), 0.664. In addition, the relative viability with RO-3306 + Trametinib (first compound 0.3162 µM) worked out at 0.712; with RO-3306 + Trametinib (first compound 1 µM), 0.666; in test [2] (first compound 0.8 µM) it was 0.607; in test [2] (first compound 2.53 µM), 0.781; in test [2] (first compound 8 µM), 0.689; in test [3] (first compound 0.8 µM), 0.821. Moreover, the relative viability in test [3] (first compound 2.53 µM) came out at 0.904; in test [3] (first compound 8 µM) it was 1.07.

As to NCI-H1651, the relative viability in test [1] (first compound 0.8 µM) turned out to be 0.555; in test [1] (first compound 2.53 µM) it was 0.503; in test [1] (first compound 8 µM) it was 0.5; in the test with RO-3306 + Trametinib (first compound 0.01 µM), 0.805; with RO-3306 + Trametinib (first compound 0.03162 µM) it was 0.803; in the test with RO-3306 + Trametinib (first compound 0.1 µM) it was 0.828. Besides, the relative viability was determined as 0.826 with RO-3306 + Trametinib (first compound 0.3162 µM); 0.8 with RO-3306 + Trametinib (first compound 1 µM); 0.853 in test [2] (first compound 0.8 µM); 0.867 in test [2] (first compound 2.53 µM); 0.739 in test [2] (first compound 8 µM); 0.486 in test [3] (first compound 0.8 µM). In addition, the relative viability in test [3] (first compound 2.53 µM) was 0.434; in test [3] (first compound 8 µM) it was 0.306; with RO-3306 + Lapatinib (first compound 0.01 µM), 0.839; with RO-3306 + Lapatinib (first compound 0.03162 µM), 0.648; with RO-3306 + Lapatinib (first compound 0.1 µM), 0.77; with RO-3306 + Lapatinib (first compound 0.3162 µM), 0.972. In the test with RO-3306 + Lapatinib (first compound 1 µM), the relative viability came to 0.644.

In the case of NCI-H23, the relative viability in test [1] (first compound 0.8 µM) was 0.484; in test [1] (first compound 2.53 µM), 0.526; in test [1] (first compound 8 µM), 0.478; in the test with RO-3306 + Trametinib (first compound 0.01 µM) it was 0.344; in the test with RO-3306 + Trametinib (first compound 0.1 µM), 0.352; with RO-3306 + Trametinib (first compound 0.3162 µM), 0.388. In addition, the relative viability worked out at 0.375 with RO-3306 + Trametinib (first compound 1 µM); 0.392 in test [2] (first compound 0.8 µM); 0.379 in test [2] (first compound 2.53 µM); 0.343 in test [2] (first compound 8 µM); 1.03 in test [3] (first compound 0.8 µM); 1.04 in test [3] (first compound 2.53 µM). The relative viability worked out at 0.907 in test [3] (first compound 8 µM); 1 in the test with RO-3306 + Lapatinib (first compound 0.01 µM); 1.02 in the test with RO-3306 + Lapatinib (first compound 0.03162 µM); 1.05 with RO-3306 + Lapatinib (first compound 0.1 µM); 1.12 with RO-3306 + Lapatinib (first compound 0.3162 µM); 0.748 in the test with RO-3306 + Lapatinib (first compound 1 µM).

On to NCI-H322M, for which the relative viability in test [1] (first compound 0.8 µM) was 0.503; in test [1] (first compound 2.53 µM) it was 0.497; in test [1] (first compound 8 µM) it was 0.51; with RO-3306 + Trametinib (first compound 0.01 µM) it was 0.561; with RO-3306 + Trametinib (first compound 0.03162 µM) it was 0.445; with RO-3306 + Trametinib (first compound 0.1 µM), 0.515. The relative viability in the test with RO-3306 + Trametinib (first compound 0.3162 µM) amounted to 0.54; in the test with RO-3306 + Trametinib (first compound 1 µM), 0.531; in test [2] (first compound 0.8 µM) it was 0.497; in test [2] (first compound 2.53 µM), 0.506; in test [2] (first compound 8 µM) it was 0.557; in test [3] (first compound 0.8 µM), 0.261. Further, the relative viability is 0.267 in test [3] (first compound 2.53 µM); 0.288 in test [3] (first compound 8 µM); 0.576 with RO-3306 + Lapatinib (first compound 0.01 µM); 0.595 with RO-3306 + Lapatinib (first compound 0.03162 µM); 0.575 in the test with RO-3306 + Lapatinib (first compound 0.1 µM); 0.586 with RO-3306 + Lapatinib (first compound 0.3162 µM). Moreover, the relative viability with RO-3306 + Lapatinib (first compound 1 µM) was found to be 0.561.

With HCC-44, the relative viability was determined as 0.982 in test [1] (first compound 0.8 µM); 0.913 in test [1] (first compound 2.53 µM); 0.903 in test [1] (first compound 8 µM); 1.06 with RO-3306 + Trametinib (first compound 0.01 µM); 0.933 with RO-3306 + Trametinib (first compound 0.03162 µM); 1.15 with RO-3306 + Trametinib (first compound 0.1 µM). Also, the relative viability with RO-3306 + Trametinib (first compound 0.3162 µM) came out at 1.13; with RO-3306 + Trametinib (first compound 1 µM) it was 1.08; in test [2] (first compound 0.8 µM), 1.01; in test [2] (first compound 2.53 µM), 0.925; in test [2] (first compound 8 µM), 0.918; with RO-3306 + Lapatinib (first compound 0.01 µM), 0.976. Also, the relative viability was found to be 0.953 with RO-3306 + Lapatinib (first compound 0.03162 µM), 0.957 with RO-3306 + Lapatinib (first compound 0.1 µM), 1.07 in the test with RO-3306 + Lapatinib (first compound 0.3162 µM) and 0.719 with RO-3306 + Lapatinib (first compound 1 µM).

Regarding NCI-H1648, the relative viability in test [1] (first compound 0.8 µM) turned out to be 0.258; in test [1] (first compound 2.53 µM), 0.274; in test [1] (first compound 8 µM) it was 0.29; in the test with RO-3306 + Trametinib (first compound 0.01 µM), 0.482; with RO-3306 + Trametinib (first compound 0.1 µM) it was 0.47; with RO-3306 + Trametinib (first compound 0.3162 µM), 0.538. Also, the relative viability with RO-3306 + Trametinib (first compound 1 µM) stood at 0.404; in test [2] (first compound 0.8 µM), 0.628; in test [2] (first compound 2.53 µM), 0.369; in test [2] (first compound 8 µM), 0.44.

For the cell line UMC-11, the relative viability is 0.339 in test [1] (first compound 0.8 µM); 0.346 in test [1] (first compound 2.53 µM); 0.311 in test [1] (first compound 8 µM); 0.734 with RO-3306 + Trametinib (first compound 0.01 µM); 0.679 with RO-3306 + Trametinib (first compound 0.03162 µM); 0.641 with RO-3306 + Trametinib (first compound 0.1 µM). Besides, the relative viability in the test with RO-3306 + Trametinib (first compound 0.3162 µM) stood at 0.793; with RO-3306 + Trametinib (first compound 1 µM) it was 0.531; in test [2] (first compound 0.8 µM), 0.796; in test [2] (first compound 2.53 µM), 0.711; in test [2] (first compound 8 µM), 0.862; in test [3] (first compound 0.8 µM), 0.561. Moreover, the relative viability in test [3] (first compound 2.53 µM) amounted to 0.531; in test [3] (first compound 8 µM), 0.54; with RO-3306 + Lapatinib (first compound 0.01 µM), 1.06; in the test with RO-3306 + Lapatinib (first compound 0.03162 µM), 0.676; in the test with RO-3306 + Lapatinib (first compound 0.1 µM), 0.829; with RO-3306 + Lapatinib (first compound 0.3162 µM) it was 0.971. Also, in the test with RO-3306 + Lapatinib (first compound 1 µM), the relative viability amounted to 0.671.
